Test results reported in US5532225A, “Acyclic purine phosphonate nucleotide analogs as antiviral agents, and related synthetic methods” (SRI International, priority 1992, dated 1996).

How the values were obtained:
human cytomegalovirus = experiment: in vitro antiviral evaluation (cytotoxicity and viral cytopathic effect, CPE) in MRC-5 cells; format: cell-based; details: racemate approximately 50:50 (w/w) of 1-9 and 2-9
Experimental: The compounds prepared in Examples 1 and 2 were evaluated in vitro as antiviral agents against human cytomegalovirus.
One herpes virus strain employed was Strain McCrae of type 1 herpes (thymidine kinase positive virus) (HSV-1TK^+). This strain was prepared and titered in MA-104 cells and frozen at -90° C. until use. Also used were strain HF (HSV-1TK^-), strain E194 (HSV-2), NJB strain (MCMV), and strain AD169 (HCMV).
Continuous passaged MRC-5 cells obtained from the American Type Culture Collection (Bethesda, Md.) were used for testing of herpes-type virus, with growth medium consisting of Minimum Essential Medium (MEM) supplemented with 0.1% NaHCO3 and […] gentamicin.
To a 96 well microtiter plate containing an established 24 hour monolayer of cells from which the medium has been decanted was added 0.1 mL of varying (one-half log10) concentrations of test compound, which incubated on the cell 15 minutes, after which 0.1 mL of virus in a concentration of 320 cell culture 50% infectious doses (CCID50)/0.1 mL was added. The plate was covered with plastic wrap and incubated at 37° C. The cells were examined microscopically after 72 hours for evidence of cytotoxicity and for viral cytopathic effect (CPE).

several herpes viruses = experiment: activity of isolated enantiomer against several herpes viruses (general statement); format: cell-based

Nc1nc2c(ncn2CO[C@@H](CO)CCP(=O)(O)O)c(=O)[nH]1 [Compound 2-9, 9-[(R(-)-1-Hydroxymethyl-3-phosphono)-propyl-oxymethyl]guanine]
share of the antiviral activity of the racemate due to the enantiomer (conclusion in words) (human cytomegalovirus): majority of the antiviral activity of the racemate is due to the (R) enantiomer
activity against several herpes viruses (in words) (several herpes viruses): significant activity against several herpes viruses
